Laboratory results as given in paper PMC8611843 (BMC Cancer, 2021).
Like-named read-outs stand apart in the source and are kept apart here.

Columns and labels:
[1] = Phase 1 3 + 3 dose-escalation study: safety, DLTs and drug-related AEs (CTCAE v4.03); type: in vivo
Description: This study was based on a 3 + 3 dose-escalation design (Additional file 1). […] The duration of cycle 0 was 7 days and that of each cycle after cycle 1 was 28 days in principle. Treatment continued until progressive disease (PD) or discontinuation for other reasons (Additional file 1).
(§1) The primary endpoint was safety. The severity of adverse events (AEs) was evaluated using National Cancer Institute Common Terminology Criteria for Adverse Events version 4.03 [21].
However, patients with nausea, vomiting, diarrhea, and hypophosphatemia were allowed to continue treatment without interruption by receiving the appropriate care.
AEs were summarized by System Organ Class and Preferred Term according to the Medical Dictionary for Regulatory Activities, version 20.1. The Kaplan-Meier method was used to estimate the median PFS (mPFS). PFS is defined as the duration of time from day 1 to the date of death or of PD, whichever came first. Patients who received subsequent therapy before confirmation of PD or in whom neither PD nor death was confirmed were censored at the last time point of non-PD confirmation. Clinical benefit rate (CBR) was defined as the percentage of patients achieving complete response (CR) or partial response (PR), or who maintained stable disease (SD) for more than 6 months.

[2] = Plasma ENT concentration and PK parameters (LC/MS/MS); type: in vivo, Japanese patients
Description: The PK parameters assessed after single and/or combination therapy included time at which maximum plasma concentration (Cmax) was observed (tmax), and the area under the plasma concentration-time curve from time 0–168 h (AUC0–168).

[3] = test system: Ac-K levels in CD19+ cells; test: Protein lysine acetylation (Ac-K) levels in PBMCs; type: in vivo, Japanese patients; conditions: 24 h after first administration
Description: Ac-K levels in CD19+ cells, CD56+ CD16- cells, CD14+ monocytes, CD16+ cells, CD3+ T-cells, and CD45+ cells were measured using the previously reported methods, with a modification where antiacetylated lysine monoclonal antibody (BioLegend, San Diego, CA, USA; Clone 15G10, Cat. 623406) was used.

[4] = test system: HLA-DR, CD69, ICOS on CD4+ and CD8+ T-cells; test: T-cell activation markers on CD4+ and CD8+ T-cells in PBMCs; type: in vivo, Japanese patients; conditions: Cohorts 1–3
Description: Staining of CD3+ cells was performed using antibodies (all from BioLegend) against CD4 (Clone RPA-T4, Cat. 300512), CD8 (Clone SK-1, Cat. 344718), CD69 (Clone FN50, Cat. 310910), inducible T-cell costimulator (ICOS; Clone […], Cat. 313514), and human leukocyte antigen-DR (HLA-DR; Clone L243, Cat. 307630).

[5] = Electrocardiogram, change in QTc interval; type: in vivo, Japanese patients; conditions: patients tested
Description: as §1

[6] = test system: PBMCs derived from lung cancer patients; set-up: method as in PMID 28408401; conditions: cited from earlier work
[7] = once weekly; cited from earlier work
[8] = test system: HR+/HER2− advanced or metastatic BC; set-up: method as in PMID 23650416; conditions: ENCORE 301, N = 130; cited from earlier work
[9] = test system: HR+/HER2− advanced or metastatic BC; conditions: BOLERO-2, cited from earlier work
[10] = Cohort 1 N = 3, ENT 3 mg mono → EXE combo
[11] = Cohort 2 N = 3, ENT 5 mg mono → EXE combo
[12] = Cohort 3 N = 3, ENT 10 mg mono → EXE combo
[13] = Cohort 4 N = 3, ENT 5 mg + EXE combo
[14] = Total N = 12, as of data cut-off date

## Nc1ccccc1NC(=O)c1ccc(CNC(=O)OCc2cccnc2)cc1 [ENT, Entinostat]
[1]; [10]
  Anemia, G2 (n patients, drug-related AE): 1
  Back pain, G1 (n patients, drug-related AE): 1
  Diarrhea, G2 (n patients, drug-related AE): 1
  Hypoalbuminemia, G1 (n patients, drug-related AE): 1
  Hypoalbuminemia, G2 (n patients, drug-related AE): 1
  Neutrophil count decreased, G2 (n patients, drug-related AE): 2
  Neutrophil count decreased, G3 (n patients, drug-related AE): 1
  Platelet count decreased, G1 (n patients, drug-related AE): 2
  Pneumonitis, G1 (n patients, drug-related AE): 1
  Weight decreased, G2 (n patients, drug-related AE): 1
  White blood cell count decreased, G1 (n patients, drug-related AE): 1
  White blood cell count decreased, G2 (n patients, drug-related AE): 1
[1]; [11]
  Anemia, G1 (n patients, drug-related AE): 1
  Decreased appetite, G1 (n patients, drug-related AE): 1
  Diarrhea, G1 (n patients, drug-related AE): 1
  Fatigue, G1 (n patients, drug-related AE): 1
  Gastritis, G1 (n patients, drug-related AE): 1
  Headache, G1 (n patients, drug-related AE): 1
  Hypoalbuminemia, G2 (n patients, drug-related AE): 1
  Hypophosphatemia, G3 (n patients, drug-related AE): 2
  Nausea, G1 (n patients, drug-related AE): 2
  Neutrophil count decreased, G2 (n patients, drug-related AE): 1
  Neutrophil count decreased, G3 (n patients, drug-related AE): 1
  Platelet count decreased, G1 (n patients, drug-related AE): 1
  Platelet count decreased, G3 (n patients, drug-related AE): 1
  White blood cell count decreased, G2 (n patients, drug-related AE): 1
[1]; [12]
  Anemia, G2 (n patients, drug-related AE): 1
  Back pain, G1 (n patients, drug-related AE): 1
  Decreased appetite, G1 (n patients, drug-related AE): 1
  Fatigue, G1 (n patients, drug-related AE): 1
  Headache, G1 (n patients, drug-related AE): 1
  Hypoalbuminemia, G2 (n patients, drug-related AE): 2
  Hypophosphatemia, G2 (n patients, drug-related AE): 1
  Hypophosphatemia, G3 (n patients, drug-related AE): 1
  Nausea, G1 (n patients, drug-related AE): 2
  Neutrophil count decreased, G2 (n patients, drug-related AE): 1
  Platelet count decreased, G1 (n patients, drug-related AE): 1
  White blood cell count decreased, G2 (n patients, drug-related AE): 1
[1]; [13]
  Anemia, G3 (n patients, drug-related AE): 1
  Fatigue, G1 (n patients, drug-related AE): 1
  Gastritis, G1 (n patients, drug-related AE): 1
  Hypoalbuminemia, G1 (n patients, drug-related AE): 1
  Hypoalbuminemia, G2 (n patients, drug-related AE): 1
  Hypophosphatemia, G3 (n patients, drug-related AE): 1
  Nausea, G1 (n patients, drug-related AE): 2
  Neutrophil count decreased, G2 (n patients, drug-related AE): 1
  Neutrophil count decreased, G3 (n patients, drug-related AE): 1
  Platelet count decreased, G2 (n patients, drug-related AE): 1
  Platelet count decreased, G3 (n patients, drug-related AE): 1
  Pneumonitis, G1 (n patients, drug-related AE): 1
  Weight decreased, G1 (n patients, drug-related AE): 1
  White blood cell count decreased, G2 (n patients, drug-related AE): 1
[1]; DLT observation period
  Drug-related hypophosphatemia, grade 1 or 2: one patient in Cohorts 2, 3, and 4
  Drug-related nausea, grade 1: one patient in Cohort 3 and two patients in Cohort 4
  Drug-related platelet count decreased, grade 1 or 2: two patients in Cohort 4
[1]; DLT observation period, ENT 3 mg or 5 mg once weekly or 10 mg single dose mono, ENT 5 mg weekly + EXE 25 mg/d
  DLTs or grade 3–5 AEs: no DLTs or grade 3–5 AEs occurred
[1]; [14]
  Anemia, G1 (n patients, drug-related AE): 1
  Anemia, G2 (n patients, drug-related AE): 2
  Anemia, G3 (n patients, drug-related AE): 1
  Back pain, G1 (n patients, drug-related AE): 2
  Decreased appetite, G1 (n patients, drug-related AE): 2
  Diarrhea, G1 (n patients, drug-related AE): 1
  Diarrhea, G2 (n patients, drug-related AE): 1
  Fatigue, G1 (n patients, drug-related AE): 3
  Gastritis, G1 (n patients, drug-related AE): 2
  Headache, G1 (n patients, drug-related AE): 2
  Hypoalbuminemia, G1 (n patients, drug-related AE): 2
  Hypoalbuminemia, G2 (n patients, drug-related AE): 5
  Hypophosphatemia, G2 (n patients, drug-related AE): 1
  Hypophosphatemia, G3 (n patients, drug-related AE): 4
  Nausea, G1 (n patients, drug-related AE): 6
  Neutrophil count decreased, G2 (n patients, drug-related AE): 5
  Neutrophil count decreased, G3 (n patients, drug-related AE): 3
  Platelet count decreased, G1 (n patients, drug-related AE): 4
  Platelet count decreased, G2 (n patients, drug-related AE): 1
  Platelet count decreased, G3 (n patients, drug-related AE): 2
  Pneumonitis, G1 (n patients, drug-related AE): 2
  Weight decreased, G1 (n patients, drug-related AE): 1
  Weight decreased, G2 (n patients, drug-related AE): 1
  White blood cell count decreased, G1 (n patients, drug-related AE): 1
  White blood cell count decreased, G2 (n patients, drug-related AE): 4
[1]; by data cut-off date
  Study treatment interrupted because of grade 3 platelet count decreased: two patients
  Study treatment interrupted owing to grade 3 neutrophil count decreased: Three patients
[1]; during DLT observation period, all cohorts
  ENT dose reduction: not observed
[1]; in combination with EXE after DLT observation period
  ENT dose reduction from 5 mg to 3 mg owing to platelet count decreased and hypophosphatemia: one patient in Cohort 2 and two patients in Cohort 4
[1]; start of study to cut-off date
  Serious AEs (SAEs): one case each of abdominal pain (grade 2), pulmonary embolism (grade 3), maculopapular rash (grade 3), and femoral neck fracture (grade 3)
[2]; ENT alone, 3, 5, 10 mg
  AUC0–168 dose dependency: increased linearly with dose
[2]; all cohorts
  Steady state reached: cycle 1, day 15
[2]; human, plasma, oral administration, all cohorts
  Tmax: 28.8 to 85.2 min
[2]; intersubject variability high at 10 mg
  Cmax dose dependency: increased in accordance with dose escalation between 3 mg and 5 mg
[3]; Cohort 1 (ENT 3 mg)
  Increase of Ac-K levels in CD19+ cells vs prior to administration: about 1.5 fold
[3]; Cohort 2 (ENT 5 mg)
  Increase of Ac-K levels in CD19+ cells vs prior to administration: ~1.9 fold
[3]; Cohort 3 (ENT 10 mg)
  Increase of Ac-K levels in CD19+ cells vs prior to administration: ~2.7 fold
[4]
  Expression of HLA-DR in CD4+ and CD8+ T-cells: increased over time
[4]; some patients, greater with SD ≥ 6 months
  Expression of CD69: Increased expression
[5]
  Effect on electrocardiograms: no effect
[6]
  T-cell activation markers such as CD69: increases
[7]
  Maximum tolerated dose: 4 mg/m^2

## C=C1C[C@@H]2[C@H](CC[C@]3(C)C(=O)CC[C@@H]23)[C@@]2(C)C=CC(=O)C=C12 [EXE, exemestane]
[2]; ENT monotherapy vs ENT + EXE 25 mg/d
  Influence on the PK of ENT: no influence
[8]
  Median OS: 19.84 months
  Median PFS: 2.3 months
[9]; 35 Japanese patients
  mPFS: 4.21 months
[9]; second-line or later hormonal therapy
  mPFS: 4.1 months
